This note sets out measurements from patent EP4706646A1, “NOVEL DOUBLE-STRANDED SIRNA, CONJUGATE THEREOF, AND USE THEREOF” (priority 2023, dated 2024).

For data set [1], the system named is Hepatitis B virus. In words: Hepatitis B virus AAV mouse experiment, serum HBsAg and HBeAg. It is filed as in vivo, rAAV8-1.3HBV/C57BL/6 Mouse. Conditions: 3 mg/kg, single subcutaneous dose. An excerpt:
Preparation and Grouping of rAAV8-1.3HBV/C57BL/6 Mouse Model: A persistent HBV infection mouse model was established by tail vein injection of rAAV8-1.3HBV (strain C) into C57 mice. The AAV virus injection dose was 1E+11 vg/mouse. Six weeks after injection, blood samples were collected for analysis of serum HBeAg, HBsAg and ALT levels. Based on the quantitative results of serum HBsAg (primary) and HBeAg (secondary), 35 mice were randomly divided into stratified groups, with 5 mice per group.
Test Sample Preparation and Administration: The required dosage of drug powder was calculated based on the purity of each test sample. At a dosing concentration of 0.6 mg/mL, the corresponding saline solution was added and mixed by vortexing until a colorless, transparent liquid was obtained. The day of the first administration was defined as Day 0. All groups received a single subcutaneous dose of 5 mL/kg on Day 0. If blood sampling was required on the day of dosing, it was performed after blood collection. Main Outcome Measures: Mice were weighed and blood was collected once on Days 3, 7, 14, 21 and 28. Serum was separated for HBsAg and HBeAg level determination.
Serum HBsAg and HBeAg Level Determination: After blood collection, serum was separated, diluted with PBS, and submitted for analysis. From each sample, 10 µL of serum was removed and diluted to 500 µL (50-fold dilution) with PBS. Serum HBsAg and HBeAg levels were measured using a Hepatitis B e Antigen Assay Kit and a Hepatitis B Surface Antigen Assay Kit, respectively.

A further data set concerns hepatitis B virus (HBV). In words: Anti-HBV activity in the PHH in vitro infection model (transfection or free uptake). It is filed as cell-based, HBV serotype D. The note with it: for EC50: PHH infected with HBV serotype D, supernatant Day 8. On the procedure: Transfection and Drug Dosing: On Day 0, revived PHH were adjusted to an appropriate density (6.67E+05 cells/ml) and seeded into 48-well cell culture plates at 1.32E+05 cells per well. On Day 1, HBV serotype D was added to infect PHH (800 GE/cell). On Day 2, fresh medium was replaced. On Day 4, the cell culture medium was discarded, and the test compound was serially diluted to the required concentration, which were then introduced into the cells via transfection using Lipofectamine™ RNAiMAX. The starting concentration of the test compound was 500 pM, and 5-fold dilutions were performed. Seven concentrations were set up in duplicate, with wells containing only the transfection reagent as the medium control. Four to five hours after transfection, fresh medium without compound was replaced. The final DMSO concentration in the medium was 2%. On Day 6, fresh medium without compound was replaced. On Day 8, cell supernatants were harvested, and cell viability was assessed using CCK-8 assay.
Drug Administration via Ad libitum uptake : On day 0, the test compound was diluted to the desired concentration in enzyme-free water, starting at 500 nM. Five-fold dilutions were performed, each with seven concentrations, in duplicate, with 22 µl added to each well of the cell culture plate. Thawed frozen PHHs were plated to an appropriate density (6.67E+05 cells/ml), with 1.32E+05 cells per well. The cells were then plated and allowed to ad libitum uptake of the test compound. On day 1, the medium was changed, and the PHHs were infected with HBV serotype D (800 GE/cell). On day 2, fresh medium was replaced without virus or test compound. The final DMSO concentration in the medium was 2%. On Day 4 and 6, fresh medium without test compound was replaced. On Day 8, cell supernatants were harvested, and cell viability was assessed using CCK-8 assay.
Sample testing: qPCR was used to detect the HBV DNA content in the cell culture supernatant; ELISA was used to detect the HBsAg and HBeAg content in the cell culture supernatant. The experimental results of the double-stranded siRNA conjugate of the present invention reducing the levels of HBsAg, HBeAg and DNA in cells are shown in Table 3. Table 3: Experimental results of the double-stranded siRNA conjugates of the present invention in reducing the levels of HBsAg, HBeAg and DNA in cells

The test system of data set [2] is Hepatitis B virus. In words: HBV-Tg transgenic mouse experiment, serum HBsAg and HBeAg. It is filed as in vivo, HBV-Tg transgenic mice, C57B/6N-Tg(1.28HBV)/Vst. Conditions: 3 mg/kg, single subcutaneous dose. An excerpt: Experimental Animals: HBV-Tg transgenic mice, C57B/6N-Tg(1.28HBV)/Vst, SPF-grade males, 6-8 weeks old, weighing 16-20 g, were purchased from Beijing Vitalstar Biotechnology Co.,Ltd., Animal Production Certificate No.: SCXK(Beijing)2019-0002. Animals were housed individually in individual cages by Beijing Vitalstar Biotechnology Co.,Ltd.
Animal Grouping: Based on the quantitative results of serum HBsAg (primary) and HBeAg (secondary), animals were stratified and randomly divided into groups, with 5 animals per group.
Test Sample Preparation and Administration: The required dosage of drug powder was calculated based on the purity of each test sample. At a dosing concentration of 0.6 mg/mL, the corresponding saline solution was added and mixed by vortexing until a colorless, transparent liquid was obtained. The day of the first administration was defined as Day 0. All groups received a single subcutaneous dose of 5 mL/kg on Day 0. If blood sampling was required on the day of dosing, it was performed after blood collection.
Main Outcome Measures: Animals were weighed and blood was collected once on Days 3, 7, 14, 21, 28 and 35. Serum was separated for HBsAg and HBeAg level determination.
Serum HBsAg and HBeAg Level Determination: After blood collection, serum was separated, diluted with PBS, and submitted for analysis. From each sample, 10 µL of serum was removed and diluted to 500 µL (50-fold dilution) with PBS. Serum HBsAg and HBeAg levels were measured using a Hepatitis B e Antigen Assay Kit (Mike Biotech) and a Hepatitis B Surface Antigen Assay Kit (Mike Biotech), respectively.

[3] abbreviates: compared with vehicle control group.
Where [4] appears, read: No transfection (ad libitum uptake, Day 0), ELISA, read-out: Experimental results EC50 HBeAg.
[5] abbreviates: No transfection (ad libitum uptake, Day 0), ELISA, read-out: Experimental results EC50 HBsAg.
Setting [6] is: No transfection (ad libitum uptake, Day 0), qPCR, read-out: Experimental results EC50 DNA.

Where two headings read alike, the source gives them in different places.

The term EC50 denotes the concentration needed to bring the measured effect to its halfway point.

As for “S147: double-stranded siRNA conjugate; sense strand-conjugation group SEQ ID NO 41, antisense SEQ ID NO 27 u•G•ugaAYCGaaguGcAcac•u•u (sense GUGUGCACUUCGCUUYACA; antisense UGUGAAYCGAAGUGCACACUU; conjugation group on sense strand, modifications, key not given here; listed as Albies alba)”, the “inhibitory activity against HBsAg compared with controls DAW30025 (S149) and DAW30336 (S151)” value in the data set on Hepatitis B virus [1] (Figure 2) is listed as “significantly better than that of the controls”. Also, in the data set with Hepatitis B virus [1] (setting [3]), the “inhibitory effect on reducing HBeAg” value was “a certain inhibitory effect”. The “inhibitory effects on HBsAg” value in the data set on Hepatitis B virus [1] (compared with vehicle control group, Figure 2) is listed as “significant inhibitory effects”.
For “S146: double-stranded siRNA conjugate; sense strand-conjugation group SEQ ID NO 21, antisense SEQ ID NO 27 u•G•ugaAYCGaaguGcAcac•u•u (sense GUGUGCACUUCGCUUCYCA; antisense UGUGAAYCGAAGUGCACACUU; conjugation group on sense strand, modifications, key not given here; listed as Albies alba)”, the EC50 stood at 2.24 nM in the data set with hepatitis B virus (HBV) (setting [4]); 0.782 nM in the data set on hepatitis B virus (HBV) (setting [5]); 0.737 nM in the data set on hepatitis B virus (HBV) (setting [6]); 0.209 nM with hepatitis B virus (HBV) (Transfection (RNAiMAX, Day 4), ELISA, read-out: Experimental results EC50 HBeAg); 0.05 nM with hepatitis B virus (HBV) (Transfection (RNAiMAX, Day 4), ELISA, read-out: Experimental results EC50 HBsAg); 0.082 nM in the data set with hepatitis B virus (HBV) (Transfection (RNAiMAX, Day 4), qPCR, read-out: Experimental results EC50 DNA). Also, in the data set on hepatitis B virus (HBV) (statement in words on Table 3), the “inhibitory activity against HBsAg, HBeAg and DNA” value was “good inhibitory activity”. Further, the “inhibitory activity against HBsAg, HBeAg and DNA compared with control S148” value with hepatitis B virus (HBV) (without transfection) is reported as “significantly better than that of the control S148”. In addition, the “inhibitory activity on HBsAg compared with control DAW30025 (S149)” value with Hepatitis B virus [2] (Figure 1) is recorded as “significantly superior to that of the control group”. Further, in the data set with Hepatitis B virus [2] (setting [3]), the “inhibitory effect on reducing HBeAg” value was “a certain inhibitory effect”. In addition, the “inhibitory effects on HBsAg” value in the data set on Hepatitis B virus [2] (compared with vehicle control group, Figure 1) is “significant inhibitory effects”.
In the case of “S148: control double-stranded siRNA conjugate; sense strand-conjugation group SEQ ID NO 42, antisense SEQ ID NO 33 (sense GUGUGCACUUCGCUUCACA; antisense TGTGAAGCGAAGTGCACACTT; conjugation group on sense strand, position not given here; listed as Albies alba) [reference compound]”, the results for the EC50 with hepatitis B virus (HBV) (setting [4]), with hepatitis B virus (HBV) (setting [5]) and in the data set on hepatitis B virus (HBV) (setting [6]) were 7.42 nM, 2.9 nM and 5.72 nM, respectively.
